Data: publication PMC9266368, “Synthesis and Biological Evaluation of Small Molecules as Potential Anticancer Multitarget Agents” (International Journal of Molecular Sciences, 2022)

Columns and labels:
c-Myc = c-Myc relative quantification by flow cytometry; assay type: cell-based, human; settings: for c-Myc relative detection, A-549 / c-Myc relative detection, HT-29 / c-Myc relative detection, MCF-7: 24 h, 100 or 10 μM (Table 7), relative to DMSO control
Experimental: The study was carried out again on HT-29, A-549, and MCF-7 cell lines by flow cytometry after 24 h of treatment with the corresponding compounds. The presence of the targets in the whole cell were relatively determined by using DMSO-treated cells as a negative control and BMS-8 as a positive one for PD-L1 (Table 3).
(§1) To study the effect of the compounds on every biological target in cancer cell lines the compounds were used at a 100 or 10 μM dose, depending on their IC50 and the treated cell line.
(§2) For the assay, 10^5 cells per well were incubated for 24 h with the corresponding dose of the tested compound in a total volume of 500 μL of their growth media.
For the detection of total PD-L1, VEGFR-2, and c-Myc, the procedure was the same as for membrane targets, but after fixation, a treatment with 0,5% in PBS TritonTM X-100 was performed. The antibodies used for PD-L1 and VEGFR-2 were the ones previously described, and for the detection of c-Myc, it was FITC Rabbit monoclonal anti-c-Myc (ab223913).

membrane PD-L1 (mPD-L1) = biological target: T1, membrane PD-L1 (mPD-L1) (Homo sapiens, UniProt Q9NZQ7); assay: Membrane PD-L1 relative quantification by flow cytometry; assay type: cell-based; settings: for mPD-L1 relative detection, A-549 / mPD-L1 relative detection, MCF-7 / mPD-L1 relative detection, HT-29: 24 h, 100 or 10 μM (Table 7), percentage referred to DMSO control
T1 construct: endogenous in cells; host or cells: HT-29, A-549, MCF-7
T1 sequence (Q9NZQ7 19-290): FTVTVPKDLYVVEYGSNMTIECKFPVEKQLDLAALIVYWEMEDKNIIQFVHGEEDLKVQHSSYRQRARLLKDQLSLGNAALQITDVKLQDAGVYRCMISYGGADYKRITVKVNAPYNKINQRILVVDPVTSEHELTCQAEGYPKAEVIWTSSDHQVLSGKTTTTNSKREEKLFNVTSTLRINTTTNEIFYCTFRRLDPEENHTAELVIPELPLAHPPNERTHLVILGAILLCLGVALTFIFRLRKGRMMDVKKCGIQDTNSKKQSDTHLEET
Experimental: Based on antiproliferative activity of synthetized derivatives, we decided to study the effect of the amino derivatives 14–26 on the expression of both membrane targets PD-L1 and VEGFR-2 (mPD-L1 and mVEGFR-2). The evaluation was performed on three cancer cell lines (HT-29, A-549, and MCF-7) by flow cytometry after 24 h of treatment with the corresponding compounds. Compounds were used at a 100 or 10 μM concentration depending on their IC50 value (see Table 1 in Materials and Methods section). The presence of both targets in the membrane was relatively determined by using DMSO-treated cells as a negative control.
as §1, §2
To detect membrane PD-L1 and VEGFR-2, after the cell treatments, they were collected, fixed with 4% in PBS paraformaldehyde, and stained with FITC Mouse monoclonal Anti-Human VEGFR-2 (ab184903) and Alexa Fluor® 647 Rabbit monoclonal Anti-PD-L1 (ab215251).

HMEC-1 cells [1] = assay: Tube formation on Matrigel (antiangiogenic activity); assay type: cell-based; settings: 100 μM, 24 h
Experimental: Then we went on to study the effect of these selected compounds on the formation of new capillary networks. Again, HMEC-1 cells were seeded on Matrigel and treated with compounds 21, 22, and 23 at 100 μM. After 24 h of the corresponding treatments, we compared the cultures with non-treated cells, and the results are depicted in Figure 5d–f.
(§3) Wells of a IBIDI 15-well μ-plate for angiogenesis were coated with 15 μL of Matrigel® (10 mg/mL, BD Biosciences Europe) at 4 °C. After gelatinization at 37 °C for 30 min, HMEC-1 cells were seeded at 2 × 10^4 cells/well in 25 μL of culture medium on top of the Matrigel and were incubated for 30 min at 37 °C while they were attached.
For the tube-formation assay (study of antiangiogenic activity), 100 μM of compounds was added 20 min after seeding HMEC-1 on Matrigel.

[2] = tested on: A-549 (lung adenocarcinoma); assay: MTT cell viability assay, A-549; assay type: cell-based; settings: Homo sapiens, A549, 48 h, 2 days incubation, average ±SD of three experiments
Experimental: The effects of triazole derivatives 1–26 on the cell viability were determined by MTT assay, and the IC50 values were determined toward the human tumor cell lines HT-29 (colon adenocarcinoma), A-549 (lung adenocarcinoma), and MCF-7 (breast adenocarcinoma), as well as toward the non-tumor cell line HEK-293 (human embryonic kidney cells).
In 96-well plates, 3 × 10^3 (A549 and HEK-293) or 5 × 10^3 (HT-29, MCF-7) cells per well were incubated with serial dilutions of the tested compounds in a total volume of 100 μL of their growth media. The 3-(4,5-dimethylthiazol-2-yl)-2,5-diphenyltetrazolium bromide (MTT; Sigma Chemical Co.) dye reduction assay in 96-well microplates was used. After 2 days of incubation (37 °C, 5% CO2 in a humid atmosphere), 10 μL of MTT (5 mg/mL in phosphate-buffered saline, PBS) was added to each well, and the plate was incubated for a further 3 h (37 °C). After that, the supernatant was discarded and replaced by 100 µL of DMSO to dissolve formazan crystals. The absorbance was then read at 550 nm by spectro-photometry. For all concentrations of compound, cell viability was expressed as the percentage of the ratio between the mean absorbance of treated cells and the mean absorbance of untreated cells. Three independent experiments were performed, and the IC50 values (i.e., concentration half inhibiting cell proliferation) were graphically determined by using GraphPad Prism 4 software (2019).

HMEC-1 cells [3] = assay: Tube disruption on Matrigel (antivascular activity); assay type: cell-based; settings: 100 μM added to 24 h networks, observed after another 24 h
Experimental: The antivascular and antiangiogenic activities of the selected compounds, namely 21, 22, and 23, were settled by 3D Matrigel cell cultures. First, we studied the effect on a microvessel network from HMEC-1 cells. HMEC-1 cells were on Matrigel, and after 24 h, when organized capillary networks were formed, 100 μM of the corresponding compounds, 21–23, was added. After another 24 h, we compared the treated networks with the one that received no treatment (see Figure 5a–c).
as §3
For the tube disruption assay (study of antivascular activity), after 24 h, we checked that the capillary networks were formed on wells, and then 100 μM of compounds was added. After 24 h of treatment, the cultures were observed again, and pictures of each well were taken.

PD-L1 = biological target: T2, PD-L1 (Homo sapiens, UniProt Q9NZQ7); assay: Protein thermal shift (PTS) assay; assay type: binding; settings: for PTS Tm: PD-L1 melting temperature, DMSO 34 °C; for PTS ΔTm: shift of PD-L1 melting temperature vs DMSO
T2 construct: purchased ab167713
T2 sequence (Q9NZQ7 19-290): as above
Text: This assay measures the melting point (Tm) of the target protein which is a proxy of its stability that can be altered by the binding of a ligand. A change in the melting point relative to the unliganded form implies that a ligand has bound itself to the targeted protein. According to the fundamentals of this technique, an increase in Tm means that the binding of the ligand leads to a stabilization of the target protein, while a decrease in Tm is probably due to the fact that the binding between the ligand and its target leads to a destabilization of the protein. In this case, the tested compounds were able to change the PD-L1 melting temperature.
PTS assay was performed by following the instructions indicated in Protein Thermal ShiftTM Dye Kit (Applied Biosystems reference 4461146), using 2 μL of a 0.1 mg/mL of an aqueous solution of PD-L1 (reference ab167713) and 1.5 μL of a 0.1 mg/mL aqueous solution of the corresponding product. The melting curves were registered by a StepOneTM Real-Time PCR System.

[4] = HT-29, compared to non-treated cells

mPD-L1 relative detection, A-549 (membrane PD-L1 (mPD-L1)) [%]	mPD-L1 relative detection, MCF-7 (membrane PD-L1 (mPD-L1)) [%]	IC50 [2] [µM]	PTS Tm (PD-L1) [°C]	PTS ΔTm (PD-L1) [°C]	mPD-L1 relative detection, HT-29 (membrane PD-L1 (mPD-L1); HT-29) [%]	Reduction/inhibition of membrane PD-L1, HT-29 (membrane PD-L1 (mPD-L1); [4])	Compound	c-Myc relative detection, A-549 (c-Myc) [%]	c-Myc relative detection, HT-29 (c-Myc; HT-29) [%]	c-Myc relative detection, MCF-7 (c-Myc) [%]	Antiangiogenic effect on formation of new HMEC-1 capillary networks (HMEC-1 cells [1])	Antivascular effect on formed HMEC-1 capillary networks (HMEC-1 cells [3])	Inhibition of c-Myc, HT-29 (c-Myc; [4]) [%]
95 ± 5	83 ± 7	> 100	30	−4	–	–	Nc1ccc(-c2cn(Cc3ccccc3Cl)nn2)cc1 [Compound 21, 4-(1-(2-chlorobenzyl)-1H-1,2,3-triazol-4-yl)aniline]	>100	>100	59 ± 6	interfered with the formation of new microvessel networks	disturbance of the formed microvasculature-like network	–
82 ± 18	90 ± 2	> 100	26	−8	27 ± 5	–	Nc1ccc(-c2cn(Cc3cccc(Cl)c3)nn2)cc1 [Compound 22, 4-(1-(3-chlorobenzyl)-1H-1,2,3-triazol-4-yl)aniline]	>100	>100	59 ± 5	interfered with the formation of new microvessel networks	disturbance of the formed microvasculature-like network	–
>100	86 ± 3	> 100	29	−5	38 ± 5	around 70%	Nc1ccc(-c2cn(Cc3ccc(Cl)cc3)nn2)cc1 [Compound 23, 4-(1-(4-chlorobenzyl)-1H-1,2,3-triazol-4-yl)aniline]	>100	84 ± 5	51 ± 8	interfered with the formation of new microvessel networks	disturbance of the formed microvasculature-like network	20
